Columns and labels:
[1] = tested on: Jurkat cell line (T lymphocytes from acute T cell leukemia, mutated TP53); assay: Screening assay in Jurkat cells by measuring cell viability (flow cytometry), single dose; type: cell-based, human; design: key: “+” means low activity; “++” means good activity; “+++” means very good activity; “−” means no activity; conditions: single dose of 40 μM, 24 hour-incubation
Procedure: (§1) The human cell lines Jurkat (T lymphocytes from acute T cell leukemia), Ramos (B lymphocytes from Burkitt's lymphoma), TK6 (human lymphoblast cell line) HeLa (epithelial cervical carcinoma cell line), MDA-MB 231 (epithelial breast adenocarcinoma cell line), T98-G (glioblastoma cell line) and Hep3B (hepatocellular carcinoma cell line) were obtained from the European Collection of Cell Cultures.
(§2) Jurkat, Ramos, TK6 and CLL cells were grown in RPMI-1640 medium, and HeLa cells in DMEM medium, both containing 10% heat-inactivated fetal calf serum, 1% glutamine, and 1% penicillin-streptomycin. MDA-MB 231 cells were grown in DMEM/F-12 medium containing additionally 1% pyruvate. Hep3B cells were maintained in MEM medium supplemented with 10% fetal bovine serum. All were maintained at 37° C. in humidified atmosphere containing 5% carbon dioxide.
(§3) 0.25-0.3×10^6 cells were washed in phosphate-buffered saline (PBS) and resuspended in 100 μl of annexin binding buffer and incubated with 1 μl of annexin V-Fluorescein-5-isothiocyanate (FITC) or annexin V-Allophycocyanin (APC). After 20 min of incubation in the dark at room temperature, 100 μl of annexin binding buffer with 5 μl of propidium iodide (PI) (20 μg/ml) was added just before flow cytometric analysis. Data were analyzed using the appropriate software. Cell viability was measured by analysis of phosphatidylserine exposure and PI uptake and it is expressed as the percentage of annexin-V and PI double-negative cells.
A screening of the effect of compounds Ia-If was performed in Jurkat cell line (T lymphocytes form acute T cell leukemia) at a single dose of 40 μM for 24 hour-incubation.
Jurkat cells were selected among other leukemic tumor cell lines because they have the protein TP53 mutated.
Every compound mentioned above was dissolved in the minimum amount of DMSO necessary to be dissolved. Cell viability was measured by flow cytometry analysis. […] Thus, all the observed effects on cell viability are due to the compounds' activity.
The results are summarized in Table 2: “+” means low activity; “++” means good activity and “+++” means very good activity; “−” means no activity.

[2] = tested on: TK6 cells (human lymphoblast cell line with wild-type TP53); assay: Dose-response analysis of apoptosis by flow cytometry in TK6 cells; type: cell-based; conditions: 24 hours; for IC50: Homo sapiens, TK6, flow cytometry; for induction of apoptosis (dose-response): TK6, doses from 2 to 40 μM
Procedure: as §1, §2, §3
TK6 cells (human lymphoblast cell line with wild-type TP53) were incubated with a range of doses from 2 to 40 μM of compounds Ia and Id for 24 hours.
(§4) The IC50 of compounds Ia and Id was calculated at 24 hours by flow cytometry analysis, except for Hep3B where crystal violet assay was used. The results are expressed in Table 4 as the percentage of viable cells in respect to untreated cells at 24 hours.

[3] = tested on: T98-G cells (glioblastoma cell line with mutated TP53); assay: Dose-response analysis of apoptosis by flow cytometry in T98-G cells; type: cell-based, human; conditions: 24 hours; for IC50: Homo sapiens, T98G, flow cytometry; for induction of apoptosis (dose-response): T98-G, doses from 2 to 60 μM
Procedure: as §1, §3
T98-G cells (glioblastoma cell line with mutated TP53) were incubated with a range of doses from 2 to 60 μM of compounds Ia and Id for 24 hours.
as §4

[4] = tested on: Jurkat cells (T lymphocytes from acute T cell leukemia with mutated TP53); assay: Dose-response analysis of apoptosis by flow cytometry in Jurkat cells; type: cell-based; conditions: Homo sapiens, 24 hours, flow cytometry (annexin-V negative cells in respect to untreated cells)
Procedure: as §1, §2, §3
(§5) Dose-response analysis was performed using Jurkat mutated-TP53 cancer cells and inactivated p53 cancer cell line HeLa.
(§6) Cell viability was measured by flow cytometry and it is expressed as the percentage of nonapoptotic cells (annexin-V negative) in respect to untreated cells at 24 hours. Therefore, values under 100% are indicative of apoptosis or loss of cell viability.
Jurkat cells (which are T lymphocytes from acute T cell leukemia with mutated TP53) were incubated with a range of doses from 1 to 40 μM of each compound for 24 hours.
(§7) The IC50 at 24 hours was calculated for each compound using flow cytometry analysis. The results are expressed in Table 3 as the percentage of nonapoptotic cells (annexin-V negative) in respect to untreated cells at 24 hours.
Jurkat cells (which are T lymphocytes from acute T cell leukemia with mutated TP53) were incubated with a range of doses from 5 to 40 μM of each compound for 24 hours.

[5] = tested on: B-CLL cells from patients with wild-type TP53; assay: Dose-response analysis of apoptosis by flow cytometry in B-CLL cells, wild-type TP53; type: cell-based, human; conditions: 24 hours; for induction of apoptosis (dose-response): B-CLL cells wild-type TP53, doses from 1 to 20 μM
Procedure: as §2
(§8) Peripheral blood lymphocytes from CLL patients were obtained from the Haematology Unit at the IDIBELL-Hospital de Bellvitge, L'Hospitalet de Llobregat, Barcelona, Spain. CLL was diagnosed according to standard clinical and laboratory criteria. Written informed consent was obtained from all patients, in accordance with the Hospital de Bellvitge's Ethical Committee. Mononuclear cells from heparinized peripheral blood samples were isolated by centrifugation on a Ficoll-Hypaque (Seromed, Berlin, Germany) gradient. The purity of CLL samples was evaluated with allophycocyanin (APC)-conjugated anti-CD3 and phycoerythrin (PE)-conjugated anti-CD19 (Becton Dickinson, Frankiln Lakes, N.J., USA). Data were analysed by flow cytometry and the analysis was performed with the appropriate software.
as §3
B-CLL cells from patients with wild-type TP53 were incubated with a range of doses from 1 to 20 μM of compounds Ia and Id for 24 hours. […]

[6] = tested on: HeLa cells (epithelial cervical carcinoma cell line with inactivated p53); assay: Dose-response analysis of apoptosis by flow cytometry in HeLa cells; type: cell-based; conditions: Homo sapiens, 24 hours, flow cytometry (annexin-V negative cells in respect to untreated cells)
Procedure: as §1, §2, §3, §5, §6
HeLa cells (epithelial cervical carcinoma cell line with inactivated p53) were incubated with a range of doses from 2 to 40 μM of each compound for 24 hours.
as §7
HeLa cells (epithelial cervical carcinoma cell line with inactivated p53) were incubated with a range of doses from 5 to 40 μM of each compound for 24 hours.

[7] = tested on: Hep3B cells (hepatocellular carcinoma cell line with deleted TP53); assay: Cell viability by crystal violet assay in Hep3B cells; type: cell-based, human; conditions: 24 hours; for IC50: Homo sapiens, crystal violet assay; for loss of cell viability (dose-response): doses from 2 to 40 μM, crystal violet
Procedure: as §1, §2
This method allows quantifying the amount of cells that survive after a toxic process, and it consists on cell staining with a colorant, crystal violet. This method is only useful when working with adherent cells that detached after undergoing a toxic process.
After the cells were incubated, in 12 or 24-well plates, with the different stimuli or inhibitors, the cell media was removed, and cells were washed twice with PBS. Then, a solution of Crystal violet at 0.2% (w/v) in 2% ethanol was added during 30 minutes. Following this, the staining solution was removed, and the wells were washed several times with PBS or distilled water until the excess staining that was not incorporated into the cells was eliminated. The plate was air-dried, and the stained cells were lysed in 10% SDS. By spectrophotometric analysis, the absorbance was measured at 595 nm.
The results were then calculated as the percentage of viable cells relative to control cells (cells incubated in the absence of treatment) at the indicated times.
Hep3B cells (hepatocellular carcinoma cell line with deleted TP53) were incubated with a range of doses from 2 to 40 μM of compounds Ia and Id for 24 hours.
as §4

[8] = tested on: MDA-MB-231 cells (epithelial breast adenocarcinoma cell line with mutated TP53); assay: Dose-response analysis of apoptosis by flow cytometry in MDA-MB-231 cells; type: cell-based, human; conditions: 24 hours; for IC50: Homo sapiens, MDA-MB-231, flow cytometry; for induction of apoptosis (dose-response): MDA-MB-231, doses from 2 to 60 μM
Procedure: as §1, §2, §3
MDA-MB-231 cells (epithelial breast adenocarcinoma cell line with mutated TP53) were incubated with a range of doses from 2 to 60 μM of compounds Ia and Id for 24 hours.
as §4

B-CLL cells = assay: IC50 by flow cytometry in primary B-CLL cells; type: cell-based; conditions: Homo sapiens, 24 hours
Procedure: as §2
as §8, with “Written informed consent was obtained from all patients, in accordance with the Hospital de Bellvitge's Ethical Committee. Mononuclear cells from heparinized peripheral blood samples were isolated by centrifugation on a Ficoll-Hypaque (Seromed, Berlin, Germany) gradient.” left out
(§9) 0.25-0.3×10^6 cells were washed in phosphate-buffered saline (PBS) and resuspended in 100 μl of annexin binding buffer and incubated with 1 μl of annexin V-Fluorescein-5-isothiocyanate (FITC) or annexin V-Allophycocyanin (APC). […] Data were analyzed using the appropriate software. […]
The IC50 of compounds Ia and Id was calculated at 24 hours by flow cytometry analysis, except for Hep3B where crystal violet assay was used. […]

[9] = tested on: B-CLL cells from patients with mutated TP53; assay: Dose-response analysis of apoptosis by flow cytometry in B-CLL cells, mutated TP53; type: cell-based, human; conditions: B-CLL cells mutated TP53, doses from 1 to 20 μM, 24 hours
Procedure: as §2
as §8, with “Mononuclear cells from heparinized peripheral blood samples were isolated by centrifugation on a Ficoll-Hypaque (Seromed, Berlin, Germany) gradient.” left out
as §9

[10] = tested on: Ramos cells (B lymphocytes from Burkitt's lymphoma with mutated TP53); assay: Dose-response analysis of apoptosis by flow cytometry in Ramos cells; type: cell-based, human; conditions: 24 hours; for IC50: Homo sapiens, flow cytometry; for induction of apoptosis (dose-response): doses from 2 to 40 μM
Procedure: as §1, §2, §3
Ramos cells (B lymphocytes from Burkitt's lymphoma with mutated TP53) were incubated with a range of doses from 2 to 40 μM of compounds Ia and Id for 24 hours.
as §4

[11] = tested on: T cells (CLL cells from patients with wild-type TP53); assay: Dose-response analysis by flow cytometry in T cells of CLL patients, wild-type TP53; type: cell-based, human; conditions: doses from 5 to 40 μM, 24 hours
Procedure: Viability was measured by flow cytometry and it is expressed as the percentage of nonapoptotic cells (annexin-V FITC negative). A representative patient is shown.
as §2
Peripheral blood lymphocytes from CLL patients were obtained from the Haematology Unit at the IDIBELL-Hospital de Bellvitge, L'Hospitalet de Llobregat, Barcelona, Spain. […] The purity of CLL samples was evaluated with allophycocyanin (APC)-conjugated anti-CD3 and phycoerythrin (PE)-conjugated anti-CD19 (Becton Dickinson, Frankiln Lakes, N.J., USA). Data were analysed by flow cytometry and the analysis was performed with the appropriate software.
as §9

| IC50 [2] | IC50 [3] | IC50 [4] | IC50 [6] | IC50 [7] | IC50 [8] | IC50 (B-CLL cells) | IC50 [10] | Structure (SMILES) | Biological activity [1] | induction of apoptosis (dose-response) [2] | induction of apoptosis (dose-response) [3] | induction of apoptosis (dose-response) [5] | loss of cell viability (dose-response) [7] | induction of apoptosis (dose-response) [8] | induction of apoptosis (dose-response) [9] | induction of apoptosis (dose-response) [10] | induction of apoptosis (dose-response) in B cells ([5]; CLL cells wild-type TP53, B cells, doses from 5 to 40 μM) | sensitivity of T cells compared with B cells [11] |
| --- | --- | --- | --- | --- | --- | --- | --- | --- | --- | --- | --- | --- | --- | --- | --- | --- | --- | --- |
|  |  |  |  |  |  |  |  | Clc1ccc(-c2cnc(-c3ccc(Cl)cc3)s2)cc1 [comparative Ad, 2,5-bis(4-chlorophenyl)thiazole, reference compound] | − |  |  |  |  |  |  |  |  |  |
| 8 µM | 50 µM | 4 µM | 20 µM | 14 µM | 16 µM | 4 µM | 4.5 µM | Fc1nc(C2=NC(F)(F)C(F)(c3ccccc3)S2)sc1-c1ccccc1 (centres unmarked) [Ia, 4-fluoro-5-phenyl-2-(4,4,5-trifluoro-5-phenyl-4,5-dihydrothiazol-2-yl)thiazole] | +++ | induced apoptosis in a dose-dependent manner | induced apoptosis in a dose-dependent manner | induced apoptosis in a dose-dependent manner | induced a loss on cell viability in a dose-dependent manner | induced apoptosis in a dose-dependent manner | induced apoptosis in a dose-dependent manner | induced apoptosis in a dose-dependent manner |  |  |
|  |  | 3 µM | 8 µM |  |  |  |  | FC1(F)N=C(c2ncc(-c3ccccc3)s2)SC1(F)c1ccccc1 (centres unmarked) [Ib, 5-phenyl-2-(4,4,5-trifluoro-5-phenyl-4,5-dihydrothiazol-2-yl)thiazole] | +++ |  |  |  |  |  |  |  |  |  |
|  |  | 20 µM | 3.5 µM |  |  |  |  | FC1(F)N=C(c2ccc(-c3ccccc3)cc2)SC1(F)c1ccccc1 (centres unmarked) [Ie, 4,4,5-trifluoro-2-(biphenyl-4-yl)-5-phenyl-4,5-dihydrothiazole] | + |  |  |  |  |  |  |  |  |  |
| 2.5 µM | 7.5 µM | 3.5 µM | 1.75 µM | 5 µM | 4 µM | 5 µM | 3.5 µM | FC1(F)N=C(c2ccc(Cl)cc2)SC1(F)c1ccc(Cl)cc1 (centres unmarked) [Id, 4,4,5-trifluoro-2,5-bis(4-chlorophenyl)-4,5-dihydrothiazole] | +++ | induced apoptosis in a dose-dependent manner | induced apoptosis in a dose-dependent manner | induced apoptosis in a dose-dependent manner | induced a loss on cell viability in a dose-dependent manner | induced apoptosis in a dose-dependent manner | induced apoptosis in a dose-dependent manner | induced apoptosis in a dose-dependent manner |  |  |
|  |  | 8 µM | 17 µM |  |  |  |  | CCOC(=O)c1ccc(C2=NC(F)(F)C(F)(c3ccc(C)cc3)S2)cc1 (centres unmarked) [If, ethyl 4-(4,4,5-trifluoro-5-(p-tolyl)-4,5-dihydrothiazol-2-yl)benzoate] | ++ |  |  |  |  |  |  |  |  |  |
|  |  | 8 µM | 10 µM |  |  |  |  | FC1(F)N=C(c2ccccc2)SC1(F)c1ccccc1 (centres unmarked) [Ic, 4,4,5-trifluoro-2,5-diphenyl-4,5-dihydrothiazole] | ++ |  |  |  |  |  |  |  | induced apoptosis in a dose-dependent manner | less sensitive |

Reference: US8680126B2, “Fluorinated thiazoles for use in treating cancer” (Universitat de Barcelona, priority 2010, dated 2014)
